Reference: US11925733B2, “Malodor counteractant composition and methods” (Bell Flavors & Fragrances, Inc., priority 2016, dated 2024)

Test: Gas chromatographic headspace measurement of fragrance compounds with and without zinc ricinoleate
Type: physicochemical
Details: 100 ng of each fragrance chemical on a film of 0.5 g zinc ricinoleate; FIG. 4
Source text: The effect of zinc ricinoleate [Zn(Ri)2] on the partitioning of compounds into the headspace. Headspace analysis is a sampling technique in which a nonvolatile matrix (liquid or solid) is heated and volatiles are collected as they partition (migrate) into the unfilled volume of the vial (headspace). These compounds are concentrated on an adsorbent tube then injected into the chromatograph where individual compounds are separated.
A sample of volatile compounds are placed into a vial, sealed, and heated for a period of time. The volatile compounds will migrate into the gas headspace. The more volatile the compound, the more concentrated it will be in the headspace. Conversely, the less volatile components will partition into the headspace to a lesser extent thus separating components of interest from the nonvolatile sample matrix (diaper).
For each test compound, 1 microliter of a 100 nanogram/microliter (ng/μl) solution (100 ng of each fragrance chemical) is put into a vial, warmed, purged, and volatiles concentrated in an adsorbent cartridge. The cartridge is desorbed into the GC where individual compounds are separated. A second set of each of the fragrance chemicals is prepared and added to a vial where 0.5 g zinc ricinoleate has been added. […]

With zinc ricinoleate the “effect on headspace volatility of fragrance chemicals” value was “reduction of volatility”.
